The source of these data is the RepoRT retention time repository (doi:10.1016/j.chroma.2019.01.023).

Common to all, as to conditions: stereoisomer not certain
Series [1] in a line: RP, Phenomenex Kinetex C18, 150 × 2.1 mm, 1.7 µm, 30 °C, 0.3 mL/min, estimated dead time 1.1 min; A: water + 0.1% formic acid, pH 3; B: acetonitrile + 0.1% formic acid, pH 3; gradient (min/%B) 0/2 14/100 17/100 17.1/2 25/2.
The nature of series [2]: HILIC, Merck SeQuant ZIC-pHILIC, 150 × 2.1 mm, 5 µm, 40 °C, 0.3 mL/min, estimated dead time 1.1 min; A: acetonitrile; B: water + 2.8 mM ammonium formate, pH 9; gradient (min/%B) 0/5 1/5 10/51 13/51 13.1/5 20/5.
A short description of series [3]: HILIC, Waters ACQUITY UPLC BEH Amide, 150 × 2.1 mm, 1.7 µm, 40 °C, 0.5 mL/min, estimated dead time 0.66 min; A: 5% water + 95% acetonitrile; B: 70% water + 30% acetonitrile + 10 mM ammonium formate, pH 6.5; gradient (min/%B) 0/0 2/0 20/70 23/70 24/0 31/0.

Structures are written as SMILES. Counter-ions that a name gives are not always drawn.

`NCC(N)C(=O)O` (centres undefined) [2,3-DIAMINOPROPIONATE]: the LC retention time in series [1] was 2.37 min.
The same measure, in the same setting: for `CC(=O)N[C@@H]1[C@@H](O)[C@H](O)[C@@H](CO)O[C@H]1N` [2-ACETAMIDO-2-DEOXY-BETA-D-GLUCOSYLAMINE] the value was 9.58 min; for `CCC(O)C(=O)[O-]` (centres undefined) [2-HYDROXYBUTYRATE], 2.37 min.
`CCCCCCCCCC(C)=O` [2-UNDECANONE]: in series [1], the LC retention time is 8.62 min.
Still for that read-out and setting: for `Cc1ccc(O)c(O)c1` [4-METHYLCATECHOL] the value was 3.31 min; for `Nc1ncnc2c1ncn2C1OC(COP(=O)(O)O)C(OP(=O)(O)O)C1O` (centres undefined) [ADENOSINE 3',5'-DIPHOSPHATE], 1.36 min.
Regarding `O=Cc1ccccc1` [BENZALDEHYDE], the LC retention time in series [1] was 3.93 min.
Same read-out and setting: with `CCC(C(=O)O)C(=O)O` [ETHYLMALONATE] the figure was 3.46 min; with `O=S(=O)(O)Oc1c[nH]c2ccccc12` [INDOXYL SULFATE], 4.62 min.
Same read-out and setting: for `C=C(CC(=O)O)C(=O)O` [ITACONATE] the value was 3.16 min.
Consider `COC1OC(CO)C(O)C(O)C1O` (centres undefined) [METHYL GALACTOSIDE], for which the LC retention time in series [2] was 6.42 min; in series [3], 4.01 min.
With `CC(C(=O)O)C(=O)O` [METHYLMALONATE], the LC retention time in series [1] was 2.19 min.
In the case of `OC1C(O)C(O)C(O)C(O)C1O` (centres undefined) [MYOINOSITOL], the LC retention time in series [2] was 9.47 min; in series [3], 11 min.
For `CC(=O)NC(CC(N)=O)C(=O)O` (centres undefined) [N-ACETYLASPARAGINE] the same measures were 7.88 min and 8.1 min.
For `CC(=O)NC(CO)C(=O)O` (centres undefined) [N-ACETYLSERINE] the same measures were 7.56 min and 5.57 min.
Take `O=CNCC(=O)O` [N-FORMYLGLYCINE]: the LC retention time in series [2] is 7.76 min; in series [3], 4.89 min.
The corresponding values for `CNC(CC(=O)O)C(=O)O` (centres undefined) [N-METHYLASPARTATE] are 8.28 min and 11.6 min.
For `CNC(CCC(=O)O)C(=O)O` (centres undefined) [N-METHYLGLUTAMATE], the figures for the LC retention time in series [2] and in series [3] were 8.12 min and 11.1 min, respectively.
Turning to `NC(=O)c1ccc[n+](C2OC(COP(=O)(O)OP(=O)(O)OCC3OC(n4cnc5c(N)ncnc54)C(OP(=O)(O)O)C3O)C(O)C2O)c1` (centres undefined) [NADP], the LC retention time in series [1] is 1.41 min.
For the molecule `NC(=O)c1ccc[n+](C2OC(COP(=O)(O)OP(=O)(O)OCC3OC(n4cnc5c(=O)[nH]cnc54)C(O)C3O)C(O)C2O)c1` (centres undefined) [NICOTINAMIDE HYPOXANTHINE DINUCLEOTIDE], the LC retention time in series [1] was 1.45 min.
Turning to `O=C([O-])c1cc(=O)[nH]c(=O)[nH]1` [OROTATE], the LC retention time in series [2] is 7.34 min; in series [3] it was 3.49 min.
Take `O=C([O-])Cc1ccccc1` [PHENYLACETATE]: the LC retention time in series [1] is 3.97 min.
As for `O=C(O)C1CCCCN1` (centres undefined) [PIPECOLATE], the LC retention time in series [1] is 1.38 min.
Take `CC(=O)C1CCC2C3CC=C4CC(OS(=O)(=O)O)CCC4(C)C3CCC12C` (centres undefined) [PREGNENOLONE SULFATE]: the LC retention time in series [1] was 8.69 min.
On to `O=C(O)C1CCCN1` (centres undefined) [PROLINE], for which the LC retention time in series [2] is 7.67 min; in series [3], 8.55 min.
Regarding `NC(CSCC(=O)O)C(=O)O` (centres undefined) [S-CARBOXYMETHYLCYSTEINE], the LC retention time was 6.4 min in series [2] and 2.47 min in series [3].
The corresponding values for `OCC1OC(OC2(CO)OC(CO)C(O)C2O)C(O)C(O)C1O` (centres undefined) [SUCROSE] are 8.77 min and 10.2 min.
Regarding `NCCS(=O)(=O)O` [TAURINE], the results for the LC retention time in series [2] and in series [3] were 9.1 min and 8.04 min, respectively.
For `OCC1OC(OC2OC(CO)C(O)C(O)C2O)C(O)C(O)C1O` (centres undefined) [TREHALOSE] the same measures were 9.23 min and 11.3 min.
For `CC(C)C(N)C(=O)O` (centres undefined) [VALINE] the same measures were 7.72 min and 8.75 min.
